Laboratory results as given in publication PMC3404738 (International journal for parasitology, drugs and drug …, 2012).

Tested on: A. ceylanicum
Experiment: In vivo treatment in the hamster model of hookworm infection
Set-up: species or system Ancylostoma ceylanicum
Conditions: ABZ 10mg/kg once orally, hamsters, 20 DPI, vs infected controls

SMILES: CCCSc1ccc2nc(NC(=O)OC)[nH]c2c1 [Albendazole, reference compound]
- Intestinal worm burdens: eliminated intestinal worm burdens
